Assay results: US20240238228A1, “COMPOSITIONS AND METHODS FOR TREATING ALLERGIES AND INFLAMMATORY CONDITIONS” (UNIVERSITY OF PITTSBURGH-OF THE COMMONWEALTH SYSTEM OF …, priority 2021, published 2024)
Where two headings read alike, the source gives them in different places.

Assays:
[1] = system: passive cutaneous anaphylaxis (PCA); test: Passive cutaneous anaphylaxis (PCA) in mice; assay type: in vivo, mouse; details: glyburide 2.5 mg/kg i.p. 3 h prior to PCA induction
IL10-eGFP^+ MCs = test: IL-10-GFP expression in skin mast cells of VERT-X reporter mice; assay type: in vivo, mouse; details: with and without PCA induction
Protocol: C6(Cg)-IL10^tm1.1.Karp/J (VERT-X) mice (Jackson Laboratories) were bred at the University of Pittsburgh. On d0, mice were treated with vehicle on one ear and IgE on the contralateral ear. On day 1, mice were treated with either NKA ([…]) on both ears or vehicle on both ears. Three hours later, PCA was induced. On day 2, mice were euthanized. Excised Ear tissue was digested in IMDM media (Life Technologies) containing collagenase D (Sigma, 1.0 mg/mL) and DNAase (Roche, 1.0 mg/mL) at 37 C for 45 minutes. Single cell homogenates were blocked with FcBlock and stained. In some experiments, avidin AlexaFluro488 was injected intradermally to label cutaneous mast cells were labelled in vivo. Mice were euthanized 7 days after injection.
In other methods, mast cells differentiated for 5-7 weeks (BMMCs) or 3-4 weeks (PMCs) were collected, blocked with FcBlock and stained with anti-FceRI PE (clone MAR-1, Biolegend), anti-CD117 eFluor 450 clone 2B8, ThermoFisher) and anti-NK2R Alexa Fluor 647 or rabbit IgG Alexa Fluor 647 isotype control (Cell Signaling Technology). […]

[2] = system: allergic contact hypersensitivity (CHS); details: NKA administration, cited from earlier work
BMMCs [3] = test: β-hexosaminidase release from BMMCs; assay type: cell-based, murine; details: incubated with NKA or activated with IgE and antigen in the presence of NKA
Protocol: Mast cells (5×10^5-1×10^6) were loaded with IgE ([…]) for a minimum of 3 h in Tyrode's Buffer. Neurokinin A ([…]) was added with DNP-HSA (Sigma, as indicated or 100 ng/mL) for 40 min at 37 C. Cells and supernatants were collected, cell pellets were lysed in Tyrode's Buffer by freeze-thawing then incubated with p-nitrophenyl N-acetyl j-D-glucosaminide (EMB Millipore, 5 mM) dissolved in citrate buffer (0.04 M, pH 4.5) for 90 minutes. The enzymatic reaction was stopped with glycine (0.4 M, pH 10.7). Absorbance at 450 nm was read. The average percentage of b-hexosaminidase release from triplicate values was calculated as (ODsup/ODsup+ODlysate)×100(%).

BMMCs [4] = test: MS/MS shotgun proteomics on BMMC releasate; assay type: cell-based, murine
Protocol: BMMCs (4×10^6) were activated in Tyrode's Buffer without BSA (500 μl) for 1 hour. Protease Inhibitor Cocktail (Sigma, containing aprotinin, bestatin, E-64, leupeptin and pepstatin A) was added to cell free supernatants. Supernatants were concentrated using Amicon Ultra Centrifugal Filters-3K (EID Millipore). Protein concentrations were quantified with the BCA Protein Assay Kit (ThermoFisher). Tryptic peptides were generated with the filter-aided sample preparation method, desalted with C18 spin columns and dried in aspeedvac. Peptides were reconstituted in 0.5% formic acid in 96:4 water:acetonitrile and resolved with liquid chromatography tandem mass spectrometry with a system composed of a Waters nanoACQUITY UPLC in-line with a Q-Exactive mass spectrometer (ThermoFisher). Solvent A (0.1% formic acid in water, Burdick & Jackson) and solvent B (0.1% formic acid in acetonitrile, Burdick & Jackson) were used as the mobile phase. Peptides were then eluted from a capillary column (100 μm inner diameter×100 mm long; ACQUITY UPLC M-Class Peptide BEH C18 Column, 1.7-μm particle size, 300 Å (Waters), and resolved using a 100-min gradient at a flow rate of 0.9 μL/min (4-33% B for 90 min, 33-80% B for 2 min, constant at 80% B for 6 min, and then 80-0% B for 2 min to equilibrate the column). Data were collected in positive ionization mode. PEAKSX software was used to sequence and identify peptides in each sample using a decoy search at a 1.0% false discovery rate using the UniProt murine database. Label-free quantitation was performed using the quantitative module in the PEAKSX software. The MS proteomics data have been deposited to the ProteomeXchange Consortium via the PRIDE partner repository with the dataset identifier PXD021377. Pathway analysis for expressed proteins was done using the Panther Classification System.

Row | β-hexosaminidase release (BMMCs [3]) | release of proteases β-hexosaminidase, MC carboxypeptidase, cathepsin D and chymase (BMMCs [4]) | Molecule | ear thickness at 2 h [1] | levels of IL-13 in the skin ([1]; 24 hours) | levels of TNF in the skin ([1]; 24 hours) | increase in percentage of IL10-eGFP^+ MCs (IL10-eGFP^+ MCs) | allergic contact hypersensitivity (CHS) in the skin [2] | allergic contact hypersensitivity (CHS) in the skin ([2]; listed as Neurokinin A) | release of proteins associated with metabolism and cellular function pathways (pathway analysis) (BMMCs [4]) | number of proteins upregulated by NKA (BMMCs [4]; BMMCs activated 60 minutes) | catalytic subunit of calpain 1 in releasate (BMMCs [4]; BMMCs activated in the presence of NKA)
1 | – | – | COc1ccc(Cl)cc1C(=O)NCCc1ccc(S(=O)(=O)NC(=O)NC2CCCCC2)cc1 [glyburide, reference compound] | significantly reduced | diminished | diminished | – | – | – | – | – | –
2 | no difference | unchanged | Neurokinin A [NKA] | – | – | – | two-fold | blocks | inhibits inflammation | inhibited | 94 | not detected
